Measured values as given in PMC6161601 (Journal of Enzyme Inhibition and Medicinal Chemistry, 2018).
Values joined by “and” are separate entries in the source; they are usually repeats but may differ in a detail not shown here. Equal entries are not always repeated. “Also recorded” adds a separate entry of the source. Where two headings read alike, the source gives them in different places.

What was measured:
[1] = biological target: T1, human erythrocyte acetylcholinesterase (AChE) (Homo sapiens, UniProt P22303); assay: biochemical; conditions: for SI AChE: IC50 BChE/IC50 AChE; for IC50: human erythrocyte AChE, mean ± SD of three independent experiments
T1 construct: from tissue; host or cells: haemolysed erythrocytes of healthy human donors
T1 sequence (P22303 other isoform, or with tags, fused parts or gaps): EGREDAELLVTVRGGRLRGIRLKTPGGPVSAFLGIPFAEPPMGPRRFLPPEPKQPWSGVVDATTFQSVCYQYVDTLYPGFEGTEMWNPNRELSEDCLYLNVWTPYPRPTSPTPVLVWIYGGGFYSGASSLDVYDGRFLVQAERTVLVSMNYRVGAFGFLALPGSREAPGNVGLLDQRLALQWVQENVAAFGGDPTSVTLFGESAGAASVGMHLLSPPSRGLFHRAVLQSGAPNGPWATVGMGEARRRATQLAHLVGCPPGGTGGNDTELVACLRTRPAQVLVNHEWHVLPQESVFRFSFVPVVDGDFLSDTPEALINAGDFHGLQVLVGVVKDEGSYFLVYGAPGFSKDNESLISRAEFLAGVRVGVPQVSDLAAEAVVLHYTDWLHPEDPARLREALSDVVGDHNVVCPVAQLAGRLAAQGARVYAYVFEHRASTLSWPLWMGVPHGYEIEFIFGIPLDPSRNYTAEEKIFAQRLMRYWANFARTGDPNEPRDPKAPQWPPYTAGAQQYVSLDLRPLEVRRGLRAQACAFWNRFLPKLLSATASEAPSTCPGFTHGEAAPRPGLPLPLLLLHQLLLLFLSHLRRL
Description: (§1) Blood samples were obtained from healthy donors from the Voievodal Specialized Hospital in Łódź, Poland (Wojewódzki Specjalistyczny Szpital im. Dr W. Biegańskiego w Łodzi). The blood was collected into vacuum tubes containing sodium citrate. Erythrocytes were separated from plasma by centrifugation (3000 × g, 10 min, 20 °C) with a Micro 22 R centrifuge (Hettich ZENTRIFUGEN, Tuttlingen, Germany) and washed three times with 0.9% saline. Afterwards, red cells were haemolysed by freezing and stored at a temperature of –30 °C; before each experiment, they were restored at 37° C for 15 min and used to determine AChE activity. […] The studies on the biological material were approved by the Bioethics Committee of the Medical University of Lodz (RNN/27/18/KE).
(§2) The activity of both cholinesterases (AChE and BuChE) were conducted using a spectrophotometric method developed by Ellman with previously described modifications[25]^,[30]. […] 400-fold diluted solution of haemolysed erythrocytes or diluted plasma (200 times) was incubated for 15 min (37° C) with DTNB and tested compound at an appropriate concentration, and the reaction was started by addition of substrate (ATC or BTC). The final volume of a sample was 500 µL.
(§3) AChE Selectivity Index (SI) was calculated with the aid of the following formula: SI = IC50 of BChE/IC50 of AChE. In turn BuChE SI was defined as IC50 of AChE/IC50 of BChE. Linear regression (Hanes–Woolf plots) were used to estimate the maximal velocity (Vmax) and the Michaelis constant (Km).

[2] = biological target: T2, human plasma butyrylcholinesterase (BuChE) (Homo sapiens, UniProt P06276); assay: biochemical; conditions: for IC50: human plasma BuChE, mean ± SD of three independent experiments; for SI BuChE: IC50(AChE)/IC50(BChE)
T2 construct: Plasma for determination of BuChE activity was obtained by centrifuging the blood; from tissue; host or cells: plasma of healthy human donors
T2 sequence (P06276 29-602): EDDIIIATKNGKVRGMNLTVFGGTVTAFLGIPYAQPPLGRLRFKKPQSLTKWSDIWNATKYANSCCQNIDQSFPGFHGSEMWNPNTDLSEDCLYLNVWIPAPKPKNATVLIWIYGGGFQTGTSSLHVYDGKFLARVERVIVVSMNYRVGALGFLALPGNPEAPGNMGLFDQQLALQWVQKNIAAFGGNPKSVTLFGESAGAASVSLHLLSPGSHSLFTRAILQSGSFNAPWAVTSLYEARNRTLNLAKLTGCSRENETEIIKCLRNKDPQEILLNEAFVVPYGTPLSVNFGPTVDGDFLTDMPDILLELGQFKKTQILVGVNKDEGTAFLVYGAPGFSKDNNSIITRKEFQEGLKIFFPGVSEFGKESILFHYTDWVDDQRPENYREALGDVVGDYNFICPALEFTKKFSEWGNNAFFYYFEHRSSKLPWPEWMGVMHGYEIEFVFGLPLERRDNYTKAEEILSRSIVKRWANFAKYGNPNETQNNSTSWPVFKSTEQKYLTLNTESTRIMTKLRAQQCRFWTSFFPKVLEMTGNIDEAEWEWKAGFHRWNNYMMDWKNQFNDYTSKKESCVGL
Description: as §1, §2, §3

[3] = biological target: T1, human erythrocyte acetylcholinesterase (AChE); assay: Kinetic parameters and type of AChE inhibition (Hanes–Woolf); assay type: biochemical; conditions: for Vmax(i) AChE: mean ± SD; for vmax AChE, individual experiments B1–B3: inhibitor at 1/3 of IC50; for vmax AChE, individual experiments C1–C3: inhibitor at IC50
Description: (§4) The absorbance was recorded at λ = 436 nm using a CECIL 2021 spectrophotometer (CECIL Instruments Limited, Cambridge, UK) with a thermostatic water flow (temperature 37° C).
as §3
(§5) To establish the type of inhibition, additional experiments were conducted with various concentrations of substrates (ATC, BTC), and the kinetic parameters of the enzymatic reactions were obtained using Hanes–Woolf equation, which is a graphical representation of enzyme kinetics in which the ratio of the initial substrate concentration [S] to the reaction velocity v is plotted against [S]. […]

[4] = biological target: T2, human plasma butyrylcholinesterase (BuChE); assay: Kinetic parameters and type of BuChE inhibition (Hanes–Woolf); assay type: biochemical; conditions: for Vmax(i) BuChE: mean ± SD; for vmax BuChE, individual experiments B1–B3: inhibitor at 1/3 of IC50; for vmax BuChE, individual experiments C1–C3: inhibitor at IC50
Description: as §4, §3, §5

BuChE [5] = biological target: T3, BuChE (Homo sapiens, UniProt P06276); assay: BuChE inhibition with excess of substrate (BTC); assay type: biochemical; conditions: BTC 2.5 mmol/L
T3 construct: Plasma for determination of BuChE activity was obtained by centrifuging the blood; from tissue; host or cells: plasma of healthy human donors
T3 sequence (P06276 29-602): as above

Aβ42 peptide = biological target: T4, Aβ42 peptide (Homo sapiens, UniProt P05067); assay: Beta-amyloid (Aβ 1–42) aggregation, SensoLyte ThT kit; assay type: biochemical
T4 construct: Beta-amyloid (Aβ 1–42) aggregation studies were conducted using SensoLyte ThT Aβ42 Aggregation kit; purchased AnaSpec, Inc, Fremont, CA
T4 sequence (P05067 672-713): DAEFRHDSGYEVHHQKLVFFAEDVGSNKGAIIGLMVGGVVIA
Description: Beta-amyloid (Aβ 1–42) aggregation studies were conducted using SensoLyte ThT Aβ42 Aggregation kit (AnaSpec, Inc, Fremont, CA). Aβ42 peptide was dissolved in cold (4 °C) assay buffer and left to hydrate for a few minutes. The solution was spined at 10,000 rpm for 5 min at 4 °C to centrifuge out any precipitated material. […] The final volume of the test samples was 100 µL. Simultaneously, the positive control and negative control containing morin at the final concentration of 100 µmol/L were established. […] The measurements of fluorescence intensity expressed as relative fluorescence units (RFU) were taken for 90 min with 5 min intervals. The fluorescence intensity measured for positive control equals 100% of Aβ aggregation and was used for estimation of inhibition properties of tested biguanides.
Statistical analysis of data obtained in Aβ aggregation assay was conducted with a commercially available package (GraphPad Prism 5, La Jolla, CA). The results were expressed as the mean ± standard deviation (SD) of measurements conducted in triplicates or quadruplicates. One or two-way ANOVA and subsequent post hoc tests were used for intergroup comparisons. The results were considered significant at p values lower than 0.05.

AChE = biological target: T5, AChE (Homo sapiens, UniProt P22303); assay type: biochemical
T5 construct: 400-fold diluted solution of haemolysed erythrocytes or diluted plasma (200 times) was incubated; from tissue; host or cells: haemolysed erythrocytes of healthy human donors
T5 sequence (P22303 other isoform, or with tags, fused parts or gaps): as the sequence (P22303 other isoform, or with tags, fused parts or gaps) above

[6] = biological target: T1, human erythrocyte acetylcholinesterase (AChE); conditions: previous study; cited from earlier work
BuChE [7] = biological target: T3, BuChE; conditions: BTC 0.75 mmol/L; previously published; cited from earlier work

| SMILES | SI AChE [1] | IC50 [1] | IC50 [2] | type of AChE inhibition [3] | vmax AChE, mean ± SD ([3]; B: inhibitor at 1/3 of IC50) | Vmax(i) AChE ([3]; B: inhibitor at 1/3 of IC50) | vmax AChE, mean ± SD ([3]; C: inhibitor at IC50) | Vmax(i) AChE ([3]; C: inhibitor at IC50) | vmax AChE, individual experiments B1–B3 [3] | vmax AChE, individual experiments C1–C3 [3] | I: type of inhibition, BuChE [4] | type of BuChE inhibition [4] | vmax BuChE, mean ± SD ([4]; B: inhibitor at 1/3 of IC50) | Vmax(i) BuChE ([4]; B: inhibitor at 1/3 of IC50) | vmax BuChE, mean ± SD ([4]; C: inhibitor at IC50) | Vmax(i) BuChE ([4]; C: inhibitor at IC50) | vmax BuChE, individual experiments B1–B3 [4] | vmax BuChE, individual experiments C1–C3 [4] | I: type of inhibition, AChE [3] | SI BuChE [2] | further results |
| --- | --- | --- | --- | --- | --- | --- | --- | --- | --- | --- | --- | --- | --- | --- | --- | --- | --- | --- | --- | --- | --- |
| CCCCCCSNC(N)=NC(=N)N(C)C [Compound 1] | 0.59 | 3170 ± 411 µM | 1880 ± 558 µM | non-competitive inhibition; also recorded: noncompetitively | 202.18 ± 7.39 mA/min | 0.202 ± 0.007 A/min | 161.59 ± 24.42 mA/min | 0.161 ± 0.024 A/min | 200.260 mA/min and 210.362 mA/min and 195.955 mA/min | 141.006 mA/min and 155.200 mA/min and 188.583 mA/min | M (M: mixed type) | mixed-type inhibition; also recorded: mixed manner | 206.94 ± 15.02 mA/min | 0.207 ± 0.015 A/min | 174.27 ± 11.70 mA/min | 0.174 ± 0.012 A/min | 195.000 mA/min and 223.809 mA/min and 202.024 mA/min | 161.000 mA/min and 178.705 mA/min and 183.120 mA/min |  |  |  |
| CCCCC(CC)CSNC(N)=NC(=N)N(C)C (stereo not shown) [Compound 2] | 0.09 | 3680 ± 693 µM | 335 ± 107 µM | mixed type | 218.43 ± 5.69 mA/min | 0.218 ± 0.005 A/min | 160.75 ± 10.82 mA/min | 0.160 ± 0.011 A/min | 225.000 mA/min and 215.564 mA/min and 214.749 mA/min | 153.011 mA/min and 156.143 mA/min and 173.124 mA/min | M (M: mixed type) | mixed manner; also recorded: mixed-type | 182.27 ± 9.29 mA/min | 0.182 ± 0.009 A/min | 103.11 ± 19.12 mA/min | 0.103 ± 0.019 A/min | 192.871 mA/min and 178.466 mA/min and 175.485 mA/min | 115.727 mA/min and 81.110 mA/min and 112.514 mA/min | M (M: mixed type) |  |  |
| CN(C)C(=N)N=C(N)NS(=O)(=O)c1ccc([N+](=O)[O-])cc1 [Compound 3] | 0.15 | 3820 ± 278 µM | 561 ± 192 µM | mixed inhibition; also recorded: mixed way | 147.43 ± 22.32 mA/min | 0.147 ± 0.022 A/min | 112.29 ± 24.418 mA/min | 0.112 ± 0.024 A/min | 173.106 mA/min and 136.619 mA/min and 132.580 mA/min | 136.281 mA/min and 87.466 mA/min and 113.130 mA/min | M (M: mixed type) | mixed manner | 207.61 ± 5.30 mA/min | 0.208 ± 0.005 A/min | 180.05 ± 19.37 mA/min | 0.180 ± 0.019 A/min | 207.848 mA/min and 202.204 mA/min and 212.802 mA/min | 166.268 mA/min and 171.680 mA/min and 202.204 mA/min | M (M: mixed type) | 6.82 |  |
| CN(C)C(=N)N=C(N)NS(=O)(=O)c1ccccc1[N+](=O)[O-] [Compound 4] | 0.30 | 2860 ± 283 µM | 871 ± 227 µM | mixed inhibition | 162.74 ± 5.00 mA/min | 0.163 ± 0.005 A/min | 118.77 ± 19.443 mA/min | 0.119 ± 0.019 A/min | 161.000 mA/min and 168.393 mA/min and 158.846 mA/min | 110.000 mA/min and 141.058 mA/min and 105.263 mA/min |  | non-competitively | 229.87 ± 19.38 mA/min | 0.229 ± 0.019 A/min | 174.32 ± 5.91 mA/min | 0.174 ± 0.006 A/min | 229.000 mA/min and 249.675 mA/min and 210.944 mA/min | 174.000 mA/min and 180.395 mA/min and 168.586 mA/min | M (M: mixed type) | 3.28 |  |
| CN(C)C(=N)N=C(N)N [Metformin, metformin, reference compound] |  |  |  |  |  |  |  |  |  |  |  |  |  |  |  |  |  |  |  |  | effect on BuChE activity (words) (BuChE [5]): did not reveal anti-BuChE activity; effect on BuChE activity (words) (BuChE [5]; listed as metformin): not to affect the enzyme activity; inhibition at 3000 µM (BuChE [5]; metformin at 3 mmol/L): 1.1 ± 0.51%; inhibition at 600 µM (Aβ42 peptide; 600 µmol/L, read-out: maximal inhibition of Aβ aggregation): 11.3%; effect on Aβ fibrillation vs positive control (Aβ42 peptide; both tested concentrations, 5–90 min): did not significantly affect; also recorded: not to significantly affect; type of AChE inhibition (AChE; at 1/2 IC50 for AChE): mixed-type; Vmax AChE (AChE; each at 1/2 IC50 for AChE: metformin 1175, donepezil 0.0125, compound 5 106.0 µmol/L, alone or in mixture): 0.179 ± 0.020 A/min; type of AChE inhibition [6]: mixed inhibition; BuChE inhibition (BuChE [7]): up to 21.2% |
